From patent publication US20130303500A1, “COMPOUNDS AND METHODS FOR TREATING NEOPLASIA” (Medexis S.A., priority 2010, published 2013)

What was measured:
[1] = test system: A549 (Lung) cells; assay: Sulforhodamine B (SRB) assay, A549; type: cell-based; settings: Homo sapiens
Description: (§1) Sulforhodamine B (SRB) assays were performed according to standard National Cancer Institute Guidelines. Briefly, human tumor cells from different cancer panels were seeded into 96 well plates in […] (plating densities ranging from 5-40,000 cells/well depending on the doubling time of individual cell lines) in serum-containing media for twenty-four hours prior to the addition of the compounds to be assayed. After 24 hours, one plate of each cell line was fixed in situ with trichloroacetic acid (TCA). The fixed slides were used to determine the cell population for each cell line at the time of drug addition (Tz). Each compound to be tested was solubilized in dimethyl sulfoxide (DMSO) and the desired concentration was then added to the medium and diluted serially 1:10 to provide a total of five or ten drug concentrations plus control (in a final volume of 200 μL). The starting dose before any dilution was 100 uM for all compounds.
(§2) Following drug addition, each culture was incubated for forty-eight hours. The assay was terminated with the addition of cold TCA. The supernatant was discarded, and the plates were washed with tap water and air dried. SRB solution was then added to each well. After staining, the bound stain was solubilized and the absorbance was read on an automated plate reader at a wavelength of 515 nm.
(§3) Using the absorbance measurements [time zero, (Tz), control growth, (C), and test growth in the presence of drug at the ten concentration levels (Ti)], the percentage growth was calculated at each of the drug concentrations levels. Percentage growth inhibition was calculated as:
(§4) [(Ti−Tz)/(C−Tz)]×100 for concentrations for which Ti>/=Tz
(§5) [(Ti−Tz)/Tz]×100 for concentrations for which Ti<Tz.
(§6) Three dose response parameters were calculated for each experimental agent. Growth inhibition of 50% (GI50) was calculated from [(Ti−Tz)/(C−Tz)]×100=50, which was the drug concentration resulting in a 50% reduction in the net protein increase (as measured by SRB staining) in control cells during the drug. The drug concentration resulting in total growth inhibition (TGI) was calculated from Ti=Tz. The LC50 (concentration of drug resulting in a 50% reduction in the measured protein at the end of the drug treatment as compared to that at the beginning) indicating a net loss of cells following treatment was calculated from [(Ti−Tz)/Tz]×100=−50.
(§7) Values were calculated for each of these three parameters when the level of activity was reached; however, if the effect was not reached or was exceeded, the value for that parameter was expressed as greater or less than the maximum or minimum concentration tested.

[2] = test system: DU145 (Prostate) cells; assay: MTT cell proliferation/viability assay, DU145; type: cell-based; settings: Homo sapiens, DU-145, 72 h
Description: (§8) Cell proliferation/viability was assessed by the MTT [3-(4,5-dimethylthiazol-2-yl)-2,5-diphenyltetrazolium bromide] assay, which is commercially available (Sigma, St. Louis, Mo.). Cells were cultured in 96-well plates for twenty-four hours (7-10.000 cells/well) and incubated with various concentrations of the different compounds—as indicated in the Figures—in serum-containing medium (or left untreated) for seventy-two hours. At the end of incubation, the medium was aspirated and MTT dissolved in RPMI 1640 w/o phenol red was added to each well to a final concentration of 0.25 mg/ml. After four hours incubation in the dark (37° C., 5% CO2) the supernatant was discarded. The converted dye (blue formazan crystals) was solubilized by adding 200 μl dimethylsulfoxide to each well. Absorbance was measured at 550 nm with reference at 655 nm using a spectrophotometer with the respective filters. All assays were performed in triplicate.
(§9) The effect of the different compounds on the proliferation and viability of two cancer cell lines (DU145/prostate and CAKI/renal) was tested through quantitative (4,5-dimethylthiazol-2-yl)-2,5-diphenyltetrazolium bromide (MTT) assays.

[3] = test system: 7 different cell lines (lung, ovarian, prostate, CNS, breast, colon); assay: SRB assays across 7 cell lines; type: cell-based, human
Description: as §1, §2, §3, §4, §5, §6, §7
SRB provides a colorimetric measure of a compound's anti-cancer activity. SRB assays were performed with compounds of the invention in 7 different cell lines, which represent six different tumor panels (lung, ovarian, prostate, CNS, breast, colon).

[4] = test system: MCF7 (Breast) cells; assay: Sulforhodamine B (SRB) assay, MCF7; type: cell-based, human
Description: as §1, §2, §3, §4, §5, §6, §7

[5] = molecular target: Na+/K+-ATPase (Adenosine 5′-Triphosphatase isolated from porcine cerebral cortex); assay: Na+/K+-ATPase inhibitory activity, colorimetric Adenosine 5′-Triphosphatase Enzymatic Assay (Sigma); type: biochemical; settings: enzyme from porcine cerebral cortex, 0.5 units/ml
Description: The compound inhibitory effect on ATPase activity was assessed in vitro using the colorimetric Adenosine 5′-Triphosphatase Enzymatic Assay of Sigma (St. Louis, Mo.) according to the manufacturer's instructions. This assay utilizes Adenosine 5′-Triphosphatase isolated from porcine cerebral cortex. Each reaction was performed in a final volume of […] using 0.5 units/ml enzyme in the presence of the different inhibitors. […] IC50 values were determined using the Origin® program software (OriginLab, Northampton, Mass.).

[6] = test system: SF268 (CNS) cells; assay: Sulforhodamine B (SRB) assay, SF268; type: cell-based; settings: Homo sapiens
Description: as §1, §2, §3, §4, §5, §6, §7

[7] = test system: CAKI (Renal) cells; assay: MTT cell proliferation/viability assay, CAKI; type: cell-based; settings: 72 h
Description: as §8, §9

[8] = test system: H460 (Lung) cells; assay: Sulforhodamine B (SRB) assay, H460; type: cell-based, human
Description: as §1, §2, §3, §4, §5, §6, §7

Structure (SMILES): C[C@]12CCC(=NOC3CCNC3)CC1CCC1C2CC[C@]2(C)C(=O)C(F)CC12 (stereo partly drawn) [Compound 2, (5S,10S,13S,16R)-16a-fluoro-10,13-dimethyl-3-((S)-pyrrolidin-3-yloxyimino)-tetradecahydro-2H-cyclopenta[a]phenanthren-17(14H)-one]
- CC50 ([1]; A549, 48 h, read-out: LC50): 599 nM
- GI50 ([1]; A549 Lung, SRB, 48 h): 9 nM
- IC (TGI) ([1]; A549 Lung, SRB, 48 h): 73 nM
- IC50 [2]: 250 nM
- CC50 ([3]; Homo sapiens, read-out: LC50 values): < 1000 nM
- GI50 ([3]; Homo sapiens, SRB, average over cell lines): < 1000 nM
- viability and/or cell proliferation of cell lines ([3]; cell lines representative of lung, breast, CNS, prostate, ovarian, colon and renal neoplasias): reduced the viability and/or cell proliferation
- CC50 ([4]; Homo sapiens, MCF7, 48 h, read-out: LC50): 9780 nM
- GI50 ([4]; Homo sapiens, MCF7 Breast, SRB, 48 h): 21 nM
- TGI ([4]; MCF7 Breast, SRB, 48 h): 478 nM
- IC50 [5]: 73 nM
- CC50 ([6]; SF-268, 48 h, read-out: LC50): 112 nM
- GI50 ([6]; SF-268, SF268 CNS, SRB, 48 h): 3 nM
- IC (TGI) ([6]; SF-268, SF268 CNS, SRB, 48 h): 43 nM
- IC50 [7]: 8750 nM
- TGI ([8]; H460 Lung, SRB, 48 h): 7 nM
- CC50 ([8]; Homo sapiens, NCI-H460, 48 h, read-out: LC50): 54 nM
- GI50 ([8]; Homo sapiens, NCI-H460, H460 Lung, SRB, 48 h): < 1 nM
